From ChEMBL document CHEMBL1158777, “Petrosamine B, an inhibitor of the Helicobacter pylori enzyme aspartyl semialdehyde dehydrogenase from the Australian sponge Oceanapia sp” (J Nat Prod, 2005)
pIC50: −log10 of the molar value.

Target: T1, Aspartate-semialdehyde dehydrogenase (Helicobacter pylori (strain ATCC 700392 / 26695) (Campylobacterpylori), UniProt O25801)
T1 sequence (O25801 whole entry): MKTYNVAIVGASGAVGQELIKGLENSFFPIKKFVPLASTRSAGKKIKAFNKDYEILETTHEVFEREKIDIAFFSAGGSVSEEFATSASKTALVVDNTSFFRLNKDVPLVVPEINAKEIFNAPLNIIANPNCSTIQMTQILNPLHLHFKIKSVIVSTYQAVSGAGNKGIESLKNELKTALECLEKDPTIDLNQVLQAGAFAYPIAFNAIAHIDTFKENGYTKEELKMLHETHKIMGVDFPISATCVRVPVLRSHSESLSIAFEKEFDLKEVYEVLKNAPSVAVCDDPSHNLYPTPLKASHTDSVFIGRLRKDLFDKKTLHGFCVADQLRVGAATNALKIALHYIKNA
Assay: Inhibition of Helicobacter pylori His-tagged ASD assessed as inhibition of phosphorylation of aspartate semialdehyde

| SMILES | pIC50 |
| --- | --- |
| C[n+]1ccc2c(c1)c(O)c1c3c(c4cc(Br)ccc4nc32)C(=O)C[N+]1(C)C [PETROSAMINE B] | 3.51 |
| N[C@@H](CSS(=O)(=O)O)C(=O)O | 6.74 |
